Experimental findings from patent US6689094B2, “Compound delivery using impulse transients” (priority 1996, dated 2004) are described below.

This data set concerns stratum corneum. An excerpt: For these experiments, a Q-switched solid state ruby laser (20 ns pulse duration, capable of generating up to 2 joules per pulse) was used to generate the laser beam, which hit the target material (black polystyrene sheet about 1 mm thick) and generated a single impulse transient. Impulse transients of up to 1000 bar peak stress and 50 ns duration and with a ½ inch beam diameter can be generated with this laser-target system. The large target ensures that the impulse transients generated are plane waves, because the thickness of the coupling medium is much shorter than the diameter of the impulse transient. An articulating arm was used and the laser path was totally covered for safety.
The washer was attached onto the skin with grease. The sample filled the central opening of the washer, which was approximately ¼ inch in diameter. The target material was positioned on top of the washer and irradiated with 1 laser pulse.
The black polystyrene target completely absorbed the laser radiation so that the skin was exposed only to impulse transients, and not laser radiation. […] The skin was monitored for fluorescence of protophyrin IX thirty minutes after exposure to the impulse transients.
All fluorescence measurements were compared to the fluorescence emission of the target site on the stratum corneum before the experiments.

The structures appear in SMILES notation.

Consider `NCC(=O)CCC(=O)O` [ALA, 5-aminolevulenic acid], for which, under “5% ALA in PBS, single impulse transient, skin fluorescence”, the “time for which protophyrin IX fluorescence intensity increased until maximum intensity” value is given as “approximately 4 hours”. The “protophyrin IX fluorescence when compound applied after the impulse transient” value (ALA applied on the same sites 5 minutes after impulse transients) is reported as “no fluorescence emission from protophyrin IX was observed”. For the same compound, the “time post-treatment at which the fluorescence peak at about 640 nm is highest” value (FIG. 1, single impulse transient) was 210 min. In addition, the “change of skin fluorescence intensity over time without impulse transient” value (FIG. 2, adjacent control site, ALA applied without any impulse transients) was “little change in the intensity”. The “dependence of transdermal transport on peak stress” value (FIG. 3, single impulse transient at 300, 400 or 600 bar) is given as “increases with increasing peak stress”.
